Reference: the METLIN SMRT retention time set (Domingo-Almenara et al. 2019)

Assay: gradient 5% acetonitrile 3 min, to 50% in 2 min, to 85% in 15 min, held 3 min, 100 µL/min
Conditions: column: Zorbax Extend-C18 2.1 x 50 mm; eluents: water / acetonitrile, 0.1% formic acid
In short: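 Retention times of pure standards were taken from adduct peaks that were selected by computer and manually inspected. Over 3 months, mixtures of ~100 molecules were run by HPLC–quadrupole time-of-flight mass spectrometry in positive and negative ionization mode. The Zorbax Extend-C18 column (2.1 × 50 mm, 1.8 μm) ran at 100 μL/min in water and acetonitrile, each containing 0.1% formic acid, with 40 μL dead volume and 900 μL dwell volume.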

Compound | RP-LC retention time
CCc1ccc(S(=O)(=O)Nc2ccc(-c3cn4cccc(C)c4n3)cc2)cc1 | 667 s
Cc1cnc(C(=O)N2CCC(c3noc(-c4cnccn4)n3)C2)cn1 (configuration not stated) | 630 s
COc1ccc(NC(=O)c2c(O)c3cccnc3n(-c3ccc(F)cc3)c2=O)cc1F | 1210 s
CC(Oc1ccccc1Cl)C(=O)NCCn1nc(-n2cccn2)ccc1=O (configuration not stated) | 710 s
O=C(Nc1nccs1)C1CCN(C(=O)C2COc3ccccc3O2)CC1 (configuration not stated) | 716 s
Cc1cc(C)c2nc(-c3ccc4ccccc4c3)cc(C(=O)O)c2c1 | 1310 s
NC(=O)Cc1csc(NC(=O)COc2ccc3c(c2)C(=O)CC3)n1 | 600 s
CCc1ccc(CNC(=O)c2cc3n(n2)CC(C)(C(=O)NCc2ccc(F)cc2)N(C)C3=O)cc1 (configuration not stated) | 858 s
CCC1CN2C=Nc3oc(C)c(C(=O)Nc4ccc(C(F)(F)F)cc4)c3C2=N1 (configuration not stated) | 753 s
Cc1oc(-c2ccc(NC(=O)Cc3ccc(Cl)cc3)cc2)nc1Cn1cccn1 | 941 s
CC1CCCN(c2ccc(-c3noc(CN4CCN(c5ccccc5F)CC4)n3)cn2)C1 (configuration not stated) | 1090 s
O=S(=O)(Nc1cc(-c2ccoc2)no1)c1ccc2c(c1)CCC2 | 921 s
Cc1cccc(CNC(=O)c2c(C)sc3ccn(C)c(=O)c23)c1 | 787 s
COc1ccccc1N1CCN(C(=O)C2CC(=O)N(c3ccc4oc(C)nc4c3)C2)CC1 (configuration not stated) | 693 s
COc1ccc2c(c1)C=C(C(=O)Nc1cc(OC)c(OC)c(OC)c1)CO2 | 909 s
O=C(CCc1c(-c2ccc(Br)cc2)nc2ccccn12)NCCc1ccco1 | 678 s
CCS(=O)(=O)Nc1ccc(-c2noc(C(C)NS(=O)(=O)c3ccc(C)cc3)n2)cc1 (configuration not stated) | 836 s
O=C(Nc1ccc(F)cc1F)N1CCC(N2CCN(Cc3ccccc3)C(=O)C2=O)CC1 | 681 s
CCCCn1cc(S(=O)(=O)N2CCN(c3ccc(C)cc3)CC2)c2cccnc21 | 1220 s
COc1cc([C@@H]2c3cc4c(cc3[C@H](O)[C@@H](CO)[C@@H]2C(=O)N2CCCC2)OCO4)cc(OC)c1OC | 641 s
CCC(Oc1ccc(=O)n(-c2ccc(F)cc2)n1)C(=O)NCCN1CCN(C)CC1 (configuration not stated) | 585 s
COc1cc(CNC(=O)c2ccc3c(c2)N(C)C(=O)C2CCCCN32)cc(OC)c1OC (configuration not stated) | 790 s

Compound | RP-LC retention time
CCCn1c(=O)c2c(C(=O)N3CCN(c4ccc(Cl)cc4)CC3)cc(=O)n(CCC)c2n(C)c1=O | 1210 s
Cn1nnnc1SCC(=O)NCCOc1ccc(-c2ccc(F)cc2)nn1 | 654 s
CCCn1ccc2sc(C)c(C(=O)NC3CCCCCC3)c2c1=O | 897 s
Cn1cc(C(CNC(=O)Nc2ccccc2F)c2cccnc2)c2ccccc21 (configuration not stated) | 682 s
O=C(NCc1nnc(SCc2ccccn2)o1)c1ccccc1 | 586 s
COc1ccccc1C(=O)Nc1ccc2nc(N3CCN(CC(=O)N(C)C)CC3)cc(C(=O)O)c2c1 | 579 s
Cc1ccc(N2CCN(S(=O)(=O)c3cc4c(s3)CCN(C(=O)C3CC3)C4)CC2)cc1 | 1020 s
CN1C(=O)C2CCCCN2c2ccc(C(=O)N3CCN(c4ccccn4)CC3)cc21 (configuration not stated) | 603 s
O=C(Nc1ccccc1-c1nc2ccccc2[nH]1)c1cc2ccccc2o1 | 1080 s
Cc1oc(-c2ccc(C(=O)NCCN3CCCC3)cc2)nc1COc1ccccc1 | 698 s
CCC(=O)Nc1ccc(-n2cnc(C(=O)NC3CCC(C)CC3)c2)nc1 (configuration not stated) | 710 s
COc1cc(NC(=O)Cn2c(=O)nc(N3CCCC(C)C3)c3ccccc32)cc(OC)c1 (configuration not stated) | 838 s
COc1ccc(C(=O)N2CCCC2c2cc(C)on2)cc1OC (configuration not stated) | 655 s
CCCCN1C(=O)c2ccccc2C(C(=O)NCc2cccnc2)C12CCCCC2 (configuration not stated) | 678 s
COc1ccc(S(=O)(=O)N2CCCC(C(=O)NC3CCCC3)C2)cc1C (configuration not stated) | 901 s
O=C1NC2(CCN(C(=O)c3ccc(F)cc3)CC2)N=C1c1ccc(Cl)cc1 | 872 s
CCc1nc2cccnc2n1CCN1CCN(C(=O)Nc2ccc3c(c2)OCCO3)CC1 | 590 s
O=C(NCc1noc(C2CCCC2)n1)C1CCCCC1 | 811 s
CCOC(=O)c1noc2nc(C)nc(NCc3ccccc3OC)c12 | 1100 s
O=C(NCc1ccco1)N1CCOCC1 | 568 s
O=C(Nc1cc(-c2cccs2)no1)c1cc(F)cc(F)c1 | 1010 s
COCCN1C(=O)c2ccccc2C(C(=O)NCc2ccccn2)C1c1cccs1 (configuration not stated) | 642 s

Compound | RP-LC retention time
Cc1ccc(CN2CCC(CNC(=O)Cn3ccc4c(=O)n(C)c(=O)n(C)c43)CC2)cc1 | 601 s
CCOC(=O)CC(=O)CSc1nc2ccsc2c(=O)n1Cc1ccc(F)cc1 | 903 s
Cc1ccc(Cn2nc3ccc(S(=O)(=O)N4CCCCC4)cn3c2=O)cc1 | 952 s
CCn1ccc(-c2nc(-c3ccc4c(c3)ncn4CCC(=O)N3CCCC3)no2)n1 | 642 s
COc1ccc(OC)c(NC(=O)C(=O)c2cccn2C)c1 | 1000 s
CCCN(CC1CCOC1)C(=O)Nc1ccc(CC)cc1 (configuration not stated) | 811 s
Cn1cc(-c2cc3n(n2)CCC(=O)N3CC(=O)N2CCC(N3CCCCC3)CC2)c2ccccc21 | 623 s
CCCNC(=O)N(C1CCOCC1)C1CCN(C(=O)c2cnccn2)CC1 | 611 s
Cc1cc(Cl)ccc1NC(=O)c1cccn1-c1cccnc1 | 798 s
O=C(Nc1cccc(F)c1)N1CCN(c2ncccc2-c2nnc(C3CC3)o2)CC1 | 783 s
Cc1ccc(NC(=O)Cn2c(=O)n(-c3ccccc3)c(=O)c3c2cc(C)n3C)cc1C | 886 s
Cc1cc(C)cc(NC(=O)N2CCC(n3cnc4ccc(Cl)cc4c3=O)CC2)c1 | 817 s
COc1ccc2c(c1)c1ncn(Cc3nc(C4CC4)no3)c(=O)c1n2Cc1c(F)cccc1Cl | 1070 s
CCOc1ccc(C(=O)Nc2cc(Cl)ccc2C)nn1 | 1040 s
C[C@H](N)C(=O)N[C@@H](C)C(=O)N[C@@H](Cc1ccccc1)C(=O)CCl | 638 s
Cc1cc(NC(=O)CC(=O)Nc2ccc3nc4n(c(=O)c3c2)CCCCC4)no1 | 636 s
COc1cccc(CNC(=O)C2CCN(c3nnc4c(Cl)cccn34)CC2)c1 | 683 s
CCOC(=O)C1CCN(C(=O)CN2CCN(Cc3ccc(C)cc3)C(=O)C2=O)CC1 | 710 s
Nc1nc(S(=O)(=O)Cc2ccccc2)ns1 | 637 s
O=S(=O)(c1cc(-c2nnc(C3CCCC3)o2)co1)N1CCN(C2CCCCC2)CC1 | 715 s
Cc1ccc(-c2cc(C(=O)O)c3ccc(Br)cc3n2)cc1C | 1240 s
Cc1ccc(NS(=O)(=O)c2cc3n(c2)CCCN(C(C)C)C3=O)cc1 | 778 s

Compound | RP-LC retention time
O=c1c2cc(-c3ccccc3)nn2ccn1CC(O)c1ccccc1 (configuration not stated) | 846 s
CCc1ccc(-c2ccc(=O)n(Cc3nc(-c4cccs4)no3)n2)cc1 | 1060 s
CN1C(=O)c2cc(C(=O)Nc3ccccc3Br)nn2CC1(C)C(=O)NC1CCCCC1 (configuration not stated) | 807 s
CCn1c(C2CCN(S(=O)(=O)c3ccc(C(C)C)cc3)C2)nc2cccnc21 (configuration not stated) | 906 s
Cc1ccc(C2Cn3nnc(C(=O)NCC4CC4)c3CO2)cc1 (configuration not stated) | 873 s
O=C(Nc1ccccc1)C1CCCN(c2ncnc3c2oc2ccccc23)C1 (configuration not stated) | 798 s
COCCn1cc(C(=O)Nc2ccc(N(C)C)cc2)c2nn(-c3ccccc3)c(=O)c-2c1 | 710 s
COc1ccc(CNC(=O)C2CCCN2S(=O)(=O)c2cc3c(cc2Cl)NC(=O)CO3)cc1 (configuration not stated) | 745 s
Cc1cccc(NC(=O)CN2C(=O)C3CCCCN3c3ccc(C(=O)N4CCCC4)cc32)c1 (configuration not stated) | 853 s
CN(C)S(=O)(=O)c1ccc(-c2nnc(C(=O)NCCCN3CCCC3)o2)cc1 | 593 s
Cc1ccc2c(=O)c3cccc(CC(=O)O)c3oc2c1C | 860 s
COC(=O)c1c(-c2ccc(OC)cc2)csc1N | 822 s
Cc1noc(C)c1-c1ccc(S(=O)(=O)Nc2ccc(C(F)(F)F)cc2)cc1 | 1020 s
Cc1ccc(N2CC(C(=O)N3CCC(NS(=O)(=O)c4ccccc4)CC3)CC2=O)cc1C (configuration not stated) | 800 s
CCOc1ccc(-c2cc3c(=O)n(Cc4nc(-c5ccc(C)cc5)no4)ccn3n2)cc1 | 1160 s
COC(=O)c1sc2ccccc2c1S(=O)(=O)N1CCN(c2ccccn2)CC1 | 752 s
O=C(CCC1NC(=O)c2ccccc2NC1=O)NCc1nc(-c2ccccc2)no1 (configuration not stated) | 624 s
O=C(Nc1cn(-c2ccc(C(=O)N3CCN(c4cccc(Cl)c4)CC3)cc2)cn1)C1CC1 | 810 s
CC(C)n1nnc2cc(S(=O)(=O)N3CCCC3C(=O)N3CCN(c4ccccn4)CC3)ccc21 (configuration not stated) | 609 s
CCOC(=O)C1CCCN(C(=O)CCC2NC(=O)c3ccccc3NC2=O)C1 (configuration not stated) | 621 s
CCOc1ccc2nc(NC(=O)Cc3csc4nc(-c5ccc(OC)c(OC)c5)cn34)sc2c1 | 784 s
